Reference: patent US5670498A, “8-substituted styryl xanthine derivatives” (Kyowa Hakko Kogyo Co., Ltd., priority 1992, dated 1997)

Tests used:
adenosine A2 receptor = biological target: T1, adenosine A2 receptor (Rattus norvegicus, UniProt P30543); assay: Adenosine A2 Receptor Binding Test (3H-CGS 21680, rat corpus striatum)
T1 construct: Corpus striatum of a rat was suspended in ice-cooled 50 mM Tris; from tissue; host or cells: rat corpus striatum (washed membrane suspension)
Procedure: Adenosine Receptor Antagonistic Activity (Adenosine A2 Receptor Binding Test)
Corpus striatum of a rat was suspended in ice-cooled 50 mM Tris hydroxymethyl aminomethane hydrochloride (Tris HCl) buffer (pH 7.7) by using Polytron homogenizer (manufactured by Kinematicas Co.). The suspension was centrifuged (50,000×g, 10 minutes), and the precipitate was suspended again in the same amount of 50 mM Tris HCl buffer. The suspension was centrifuged under the same conditions, and the final precipitate was suspended once again in 50 mM Tris HCl buffer containing 10 mM magnesium chloride and 0.02 unit/mg tissue of adenosine deaminase (manufactured by Sigma Co.) to give a tissue concentration of 5 mg (wet weight)/ml.
To 1 ml of the tissue suspension thus prepared were added 50 μl of a mixture of N-ethylcarboxamidoadenosine labeled with tritium (^3 H-NECA: 26 Ci/mmol, manufactured by Amersham Co.) (final concentration: 3.8 nM) and cyclopentyladenosine (CPA, manufactured by Sigma Co.) (final concentration: 50 nM), and 50 μl of a test compound. The resulting mixture was allowed to stand at 25° C. for 120 minutes and then rapidly filtered by suction through a glass fiber filter (GF/C, manufactured by Whatman Co.). The filter was immediately washed three times with 5 ml each of ice-cooled 50 mM Tris HCl buffer, and transferred to a vial, and a scintillator (EX-H by Wako Pure Chemical Industries, Ltd.) was added thereto. The radioactivity on the filter was determined with a liquid scintillation counter (manufactured by Packard instrument Co.).
The similar procedure as above was repeated to determine the radioactivity bound to the A2 receptors using 50 μl of CGS 21680 labeled with tritium {^3 H-2-[p-(2-carboxyethyl)phenethylamino]-5'-(N-ethylcarboxamide)adenosine: 40 Ci/mmol, manufactured by New England Nuclear Co. [J. Pharmacol. Exp. Ther., 251, 888 (1989)]} (final concentration: 4.0 nM) in place of 50 μl of the mixture of N-ethylcarboxamidoadenosine labeled with tritium (^3 H-NECA: 26 Ci/mmol, manufactured by Amersham Co.) (final concentration: 3.8 nM) and cyclopentyladenosine (CPA, manufactured by Sigma Co.) (final concentration: 50 nM).
The inhibition rate of the test compound against the binding of A2 receptors (^3 H-CGS 21680 binding) was calculated by the following equation: [formula]
The Ki values shown in the table were calculated by the following equation: [formula]

[1] = test system: Haloperidol-Induced Catalepsy; assay: Effect on Haloperidol-Induced Catalepsy; assay type: in vivo, male ddY mice; conditions: 10 mg/kg po
Procedure: Effect on Haloperidol-Induced Catalepsy Parkinson's disease is a clinical syndrome caused by degeneration of nigrostriatal dopaminergic neurons. […] The experiment was performed by using several groups of 5-weeks-old male ddY mice (weighing 22 to 24 g, Japan SLC), each group consisting of 5 mice. Haloperidol (Janssen Pharmaceutica) suspended in 0.3% CMC was intraperitoneally administered to each mouse at a dose of 1.0 mg/kg. Test compounds were suspended in injectable distilled water (Otsuka Pharmaceutical Co., Ltd.) containing Tween 80 [polyoxyethylene (20) sorbitan monooleate]. L-DOPA (Kyowa Hakko Kogyo Co., Ltd.) and benserazide hydrochloride (Kyowa Hakko Kogyo Co., Ltd.) were suspended in 0.3% CMC. One hour after the haloperidol administration, the test compound suspensions and the control suspension [injectable distilled water (Otsuka Pharmaceutical Co., Ltd.) containing Tween 80] containing no test compound were orally administered to separate groups of the mice (0.1 ml per 10 g of body weight). One hour after the administration of the test compound, the forelimbs of each mouse and subsequently the hindlimbs of the same mouse were placed on a 4.5 cm-high, 1.0 cm-wide bar and catalepsy was estimated. […] The catalepsy score and the standard of judgment are shown below. […] The effect of the compounds was evaluated by the total of the catalepsy scores of five mice in each group (25 points at the full).

[2] = test system: Clonidine-Induced Aggressive Behavior; assay: Effect on Clonidine-Induced Aggressive Behavior; assay type: in vivo, male ddY mice; conditions: 10 mg/kg po, clonidine 20 mg/kg ip
Procedure: Effect on Clonidine-Induced Aggressive Behavior The effect of a test compound on the aggressive behavior induced by intraperitoneal administration of clonidine was investigated [Eur. J. Pharmacol., 29, 374 (1968)]. The experiment was performed by using several groups of male ddY mice (weighing 20 to 25 g, Japan SLC), each group consisting of two mice. The test compound was suspended in injectable distilled water (Otsuka Pharmaceutical Co., Ltd.) containing Tween 80. Clonidine hydrochloride (Sigma Co.) was dissolved in physiological saline solution (Otsuka Pharmaceutical Co., Ltd.). The test compound suspension and the control suspension [injectable distilled water (Otsuka Pharmaceutical Co., Ltd.) containing Tween 80] were orally administered to separate groups of the mice (0.1 ml per 10 g of body weight). Sixty minutes after the oral administration of the test compound, clonidine hydrochloride (20 mg/kg) was intraperitoneally injected. The number of biting attacks during 30 minutes after clonidine treatment was counted. The effect of the compound was evaluated by comparing the average number of biting attacks of the test compound-administered groups with that of control groups (Student's t-test).

[3] = read-out: A2 Receptor Inhibition Rate

T1 sequence (P30543 whole entry): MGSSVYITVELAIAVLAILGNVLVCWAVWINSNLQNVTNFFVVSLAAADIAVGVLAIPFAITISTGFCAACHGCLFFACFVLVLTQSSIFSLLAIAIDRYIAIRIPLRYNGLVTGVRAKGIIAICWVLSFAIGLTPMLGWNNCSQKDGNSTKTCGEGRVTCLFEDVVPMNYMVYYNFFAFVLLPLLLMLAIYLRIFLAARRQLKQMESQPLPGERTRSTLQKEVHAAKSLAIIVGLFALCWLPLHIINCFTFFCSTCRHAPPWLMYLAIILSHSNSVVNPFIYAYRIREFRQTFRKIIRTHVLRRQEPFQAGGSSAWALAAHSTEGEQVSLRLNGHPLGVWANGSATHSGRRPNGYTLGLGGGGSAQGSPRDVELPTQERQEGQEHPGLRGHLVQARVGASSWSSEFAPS

Work on `CCn1c(=O)c2c(nc(/C=C/c3cccc(C(C)=O)c3)n2C)n(CC)c1=O` [Compound 24, (E)-8-(3-Acetylstyryl)-1,3-diethyl-7-methylxanthine] yielded a Ki (adenosine A2 receptor; [3H]CGS 21680 (inhibition rates of the same line marked *)) of 13 nM, an inhibition at 0.1 µM (adenosine A2 receptor; [3]) of 85% and an inhibition at 1 µM (adenosine A2 receptor; [3]) of 99%. For the same molecule, the “Total Score (catalepsy)” value ([1]; sum of five mice, 25 points at the full, control 25) was 7, the inhibition in vivo at 10 mg/kg ([1]; Mus musculus, decrease in total score based on control group, read-out: Remission Rate) was 72% and the “Number of the Attacks of Test Compound-Treated Group/Number of the Attacks of Control Group” value [2] was 5.3. For the same molecule, the “Number of the Biting Attacks (mean ± S.E.M.), Test Compound-Treated Group” value ([2]; 30 minutes, control 6.3 ± 2.09, p < 0.05) was 33.1 ± 7.16.
